Source: US4343816A, “Pharmaceutical composition comprising an acyl-carnitine, for treating peripheral vascular diseases” (priority 1979, dated 1982)

Legend:
[1] = in vivo; settings: mouse, iv
Source text: As is known, carnitine contains an asymetrical carbon atom and consequently exists in two stereoisomer forms.

[2] = Tolerance and toxicity (general statement); settings: racemic mixture or separated optically active forms, whatever the route of administration

CC(=O)CC(=O)OC(CC(=O)[O-])C[N+](C)(C)C (stereo not drawn) [acetoacetyl-carnitine]
LD50 [1]: 728 mg/kg

CC(=O)OC(CC(=O)[O-])C[N+](C)(C)C (stereo not drawn) [acetyl-carnitine]
tolerance [2]: excellent
LD50 [1]: 770 mg/kg

CC(O)CC(=O)OC(CC(=O)[O-])C[N+](C)(C)C (stereo not drawn) [hydroxybutyryl-carnitine]
LD50 [1]: 745 mg/kg

CC(C)CC(=O)OC(CC(=O)[O-])C[N+](C)(C)C (stereo not drawn) [isovaleryl-carnitine]
LD50 [1]: 743 mg/kg

C[N+](C)(C)CC(CC(=O)[O-])OC(=O)CCC(=O)O (stereo not drawn) [succinyl-carnitine]
LD50 [1]: 780 mg/kg
